In patent publication US10730884B2, “Substituted indole compound derivatives as dengue viral replication inhibitors” (Janssen Pharmaceuticals, Inc., priority 2016, dated 2020):
Like-named read-outs stand apart in the source and are kept apart here.

Key:
[1] = tested on: Vero cells; settings: African green monkey
[2] = tested on: DENV-2 16681 strain; assay: DENV-2 antiviral assay (eGFP-labeled virus, Vero cells); format: cell-based, Dengue virus; settings: for EC50: DENV-2 16681 eGFP, Vero cells, MOI 0.5, 3 days; for SI: SI=CC50/EC50, DENV-2 antiviral assay
Method: The antiviral activity of all the compounds of the invention was tested against the DENV-2 16681 strain which was labeled with enhanced green fluorescent protein (eGPF). The culture medium consists of minimal essential medium supplemented with 2% of heat-inactivated fetal calf serum, 0.04% gentamycin (50 mg/mL) and 2 mM of L-glutamine. Vero cells, obtained from ECACC, were suspended in culture medium and 25 μL was added to 384-well plates (2500 cells/well), which already contain the antiviral compounds. Typically, these plates contain a 5-fold serial dilution of 9 dilution steps of the test compound at 200 times the final concentration in 100% DMSO (200 nL). […] Finally, each plate contains wells which are assigned as virus controls (containing cells and virus in the absence of compound), cell controls (containing cells in the absence of virus and compound) and medium controls (containing medium in the absence of cells, virus and compounds). To the wells assigned as medium control, 25 μL of culture medium was added instead of Vero cells. Once the cells were added to the plates, the plates were incubated for 30 minutes at room temperature to allow the cells to distribute evenly within the wells. Next, the plates were incubated in a fully humidified incubator (37° C., 5% CO2) until the next day. Then, DENV-2 strain 16681, labeled with eGFP, was added at a multiplicity of infection (MOI) of 0.5. Therefore, 15 μL of virus suspension was added to all the wells containing test compound and to the wells assigned as virus control. In parallel, 15 μL of culture medium was added to the medium and cell controls. Next, the plates were incubated for 3 days in a fully humidified incubator (37° C., 5% CO2). At the day of the read out, the eGFP fluorescence was measured using an automated fluorescence microscope at 488 nm (blue laser). Using an in-house LIMS system, inhibition dose response curves for each compound were calculated and the half maximal effective concentration (EC50) was determined. Therefore, the percent inhibition (I) for every test concentration is calculated using the following formula: I=100*([…])/(SVC−SCC); ST, SCC and SVC are the amount of eGFP signal in the test compound, cell control and virus control wells, respectively. The EC50 represents the concentration of a compound at which the virus replication is inhibited with 50%, as measured by a 50% reduction of the eGFP fluorescent intensity compared to the virus control. The EC50 is calculated using linear interpolation (Table 1).

[3] = in vitro; settings: African green monkey
[4] = tested on: DENV-3 strain H87; assay: Tetravalent RT-qPCR assay, serotype 3; format: cell-based, Dengue virus; settings: for EC50: RT-qPCR serotype 3 H87, Protocol A, Vero cells, day 3, read-out: EC50; for SI: RT-qPCR serotype 3 H87
Method: (§1) The antiviral activity of the compounds of the invention was tested against DENV-1 strain TC974#666 (NCPV), DENV-2 strain 16681, DENV-3 strain H87 (NCPV) and DENV-4 strain H241 (NCPV) in a RT-qPCR assay. Therefore, Vero cells were infected with either DENV-1, or -2, or -3, or -4 in the presence or absence of test compounds. At day 3 post-infection, the cells were lysed and cell lysates were used to prepare cDNA of both a viral target (the 3′UTR of DENV; Table 2) and a cellular reference gene (β-actin, Table 2). Subsequently, a duplex real time PCR was performed on a Lightcycler480 instrument. The generated Cp value is inversely proportional to the amount of RNA expression of these targets. Inhibition of DENV replication by a test compound result in a shift of Cp's for the 3′UTR gene. On the other hand, if a test compound is toxic to the cells, a similar effect on β-actin expression will be observed. The comparative ΔΔCp method is used to calculate EC50, which is based on the relative gene expression of the target gene (3′UTR) normalized with the cellular housekeeping gene (β-actin). In addition, CC50 values are determined based on the Cp values acquired for the housekeeping gene β-actin.
(§2) The culture medium consisted of minimal essential medium supplemented with 2% of heat-inactivated fetal calf serum, 0.04% gentamycin (50 mg/mL) and 2 mM of L-glutamine. Vero cells, obtained from ECACC, were suspended in culture medium and 75 μL/well was added in 96-well plates (10000 cells/well), which already contain the antiviral compounds. […] In addition, each plate contains wells which are assigned as virus controls (containing cells and virus in the absence of compound) and cell controls (containing cells in the absence of virus and compound). Once the cells were added in the plates, the plates were incubated in a fully humidified incubator (37° C., 5% CO2) until the next day. Dengue viruses serotype-1, 2, 3 and 4 were diluted in order to obtain a Cp of ˜22-24 in the assay. Therefore, 25 μL of virus suspension was added to all the wells containing test compound and to the wells assigned as virus control. In parallel, 25 μL of culture medium was added to the cell controls. Next, the plates were incubated for 3 days in a fully humidified incubator (37° C., 5% CO2). After 3 days, the supernatant was removed from the wells and the cells were washed twice with ice-cold PBS (˜100 μL). The cell pellets within the 96-well plates were stored at −80° C. for at least 1 day. Next, RNA was extracted using the Cells-to-CT™ lysis kit, according to the manufacturer's guideline (Life Technologies). The cell lysates can be stored at −80° C. or immediately used in the reverse transcription step.
(§3) In preparation of the reverse transcription step, mix A (table 3A) was prepared and 7.57 μL/well was dispensed in a 96-well plate. After addition of 5 μL of the cell lysates, a five minute denaturation step at 75° C. was performed (table 3B). Afterwards, 7.43 μL of mix B was added (table 3C) and the reverse transcription step was initiated (table 3D) to generate cDNA.
(§4) Finally, a RT-qPCR mix was prepared, mix C (table 4A), and 22.02 μL/well was dispensed in 96-well LightCycler qPCR plates to which 3 μL of cDNA was added and the qPCR was performed according to the conditions in table 4B on a LightCycler 480.
(§5) Using the LightCycler software and an in-house LIMS system, dose response curves for each compound were calculated and the half maximal effective concentration (EC50) and the half maximal cytotoxic concentration (CC50) were determined (Tables 5-8).

[5] = tested on: DENV-4 strain H241; assay: Tetravalent RT-qPCR assay, serotype 4; format: cell-based, Dengue virus; settings: for EC50: RT-qPCR serotype 4 H241, Protocol A, Vero cells, day 3; for SI: RT-qPCR serotype 4 H241
Method: as §1, §2, §3, §4, §5

[6] = tested on: DENV-1 strain TC974#666; assay: Tetravalent RT-qPCR assay, serotype 1; format: cell-based, Dengue virus; settings: for EC50: RT-qPCR serotype 1 TC974#666, Protocol A, Vero cells, day 3, read-out: EC50; for SI: RT-qPCR serotype 1 TC974#666
Method: as §1, §2, §3, §4, §5

[7] = tested on: DENV-2 strain 16681; assay: Tetravalent RT-qPCR assay, serotype 2; format: cell-based, Dengue virus; settings: for EC50: RT-qPCR serotype 2 16681, Protocol A, Vero cells, day 3; for SI: RT-qPCR serotype 2 16681
Method: as §1, §2, §3, §4, §5

[8] = Dengue virus, DENV2, Vero, 72 h
[9] = Dengue virus, DENV3, Vero, 72 h
[10] = Dengue virus, DENV4, Vero, 72 h
[11] = Dengue virus, DENV1, Vero, 72 h

Row | SMILES | EC50 [2] | SI [2] | CC50 [3] | EC50 [4, 9] | EC50 [5, 10] | EC50 [6, 11] | also measured
1 | COc1cc(NC(C(=O)c2c[nH]c3ccc(S(F)(F)(F)(F)F)cc23)c2ccc(Cl)cc2OC)cc(OCCO)c1 (single isomer, unassigned) [Compound 15B] | 0.013 µM | 460 | – | – | – | – | CC50 [1]: 5.8 µM
2 | COc1cc(NC(C(=O)c2c[nH]c3cc4c(cc23)CCO4)c2ccc(F)cc2OC)cc(OCCO)c1 (single isomer, unassigned) [Compound 7B] | 0.63 µM | 19 | – | – | – | – | CC50 [1]: 12 µM
3 | COc1cc(NC(C(=O)c2c[nH]c3cc(OC)c(C)c(F)c23)c2ccc(Cl)cc2OC)cc(OCCO)c1 (single isomer, unassigned) [Compound 12A] | 0.006 µM | 1200 | 5.6 µM | – | – | – | –
4 | COc1cc(NC(C(=O)c2c[nH]c3cc(OC(F)(F)F)c(C)cc23)c2ccc(F)cc2OC)cc(OCCO)c1 (racemic) [Compound 4, 2-(4-fluoro-2-methoxyphenyl)-2-((3-(2-hydroxyethoxy)-5-methoxyphenyl)amino)-1-(5-methyl-6-(trifluoromethoxy)-1H-indol-3-yl)ethanone] | – | 359 | 3.9 µM | – | – | – | EC50 [2, 8]: 0.011 µM
5 | COc1cc(NC(C(=O)c2c[nH]c3c4c(ccc23)OCC4)c2ccc(F)cc2OC)cc(OCCO)c1 (single isomer, unassigned) [Compound 8A] | 0.0043 µM | 4240 | 12 µM | 0.15 µM | 0.71 µM | 0.02 µM | SI [4]: 64; SI [5]: 20; SI [6]: 560; EC50 [7, 8]: 0.0081 µM; SI [7]: 1530
6 | COc1cc(NC(C(=O)c2c[nH]c3cc(OC(F)(F)F)c(C)cc23)c2ccc(F)cc2OC)cc(OCCO)c1 (single isomer, unassigned) [Compound 4A] | 0.63 µM | 5.4 | 3.4 µM | – | – | – | –
7 | CCOc1cc2[nH]cc(C(=O)C(Nc3cc(OC)cc(OCCO)c3)c3ccc(F)cc3OC)c2cc1C (racemic) [Compound 6, 1-(6-ethoxy-5-methyl-1H-indol-3-yl)-2-(4-fluoro-2-methoxyphenyl)-2-((3-(2-hydroxyethoxy)-5-methoxyphenyl)amino)ethanone] | – | 3160 | 5.7 µM | – | – | – | EC50 [2, 8]: 0.0018 µM
8 | COc1cc(NC(C(=O)c2c[nH]c3cc(F)c(C)cc23)c2ccc(Cl)cc2OC)cc(OCCO)c1 (single isomer, unassigned) [Compound 9A] | 0.052 µM | 70 | 3.7 µM | – | – | – | –
9 | COc1cc(NC(C(=O)c2c[nH]c3c4c(ccc23)OCC4)c2ccc(Cl)cc2OC)cc(OCCO)c1 (single isomer, unassigned) [Compound 11A] | 0.00088 µM | 7460 | 6 µM | 0.028 µM | 0.27 µM | 0.0085 µM | SI [4]: 359; SI [5]: >9.1; SI [6]: 1350; EC50 [7, 8]: 0.0019 µM; SI [7]: 2490
10 | COc1cc(NC(C(=O)c2c[nH]c3cc4c(cc23)CCO4)c2ccc(F)cc2OC)cc(OCCO)c1 (single isomer, unassigned) [Compound 7A] | 0.001 µM | 13700 | 10 µM | 0.063 µM | 0.38 µM | 0.0078 µM | SI [4]: 76; SI [5]: 12; SI [6]: 713; EC50 [7, 8]: 0.0016 µM; SI [7]: 5930
11 | COc1cc(NC(C(=O)c2c[nH]c3cc4c(cc23)CCO4)c2ccc(Cl)cc2OC)cc(OCCO)c1 (single isomer, unassigned) [Compound 10A] | 0.11 µM | 44 | 4.9 µM | – | – | – | –
12 | COc1cc(NC(C(=O)c2c[nH]c3cc(F)ccc23)c2ccc(Cl)cc2OC)cc(OCCOP(=O)(O)O)c1 (single isomer, unassigned) [13A-P^b] | 0.00048 µM | – | 11 µM | 0.042 µM | 0.25 µM | 0.0042 µM | EC50 ([4]; listed as 13A-P^c): 0.028 µM; EC50 ([2]; listed as 13A-P^c): 0.00094 µM; EC50 ([5]; listed as 13A-P^c): 0.23 µM; EC50 ([6]; listed as 13A-P^c): 0.0044 µM; EC50 [7]: 0.00097 µM; EC50 ([7]; listed as 13A-P^c): 0.00044 µM
13 | COc1cc(NC(C(=O)c2c[nH]c3cc(F)ccc23)c2ccc(Cl)cc2OC)cc(OCCOP(=O)(O)O)c1 (racemic) [Compound 13-P, 2-(3-((1-(4-chloro-2-methoxyphenyl)-2-(6-fluoro-1H-indol-3-yl)-2-oxoethyl)amino)-5-methoxyphenoxy)ethyl dihydrogen phosphate] | – | 5210 | 11 µM | – | – | – | EC50 [2, 8]: 0.0021 µM
14 | [2H]C(Nc1cc(OC)cc(OCCO)c1)(C(=O)c1c[nH]c2cc(F)ccc12)c1ccc(Cl)cc1OC (single isomer, unassigned) [Compound 13A-D] | 0.00046 µM | 24300 | 11 µM | 0.036 µM | 0.21 µM | 0.0052 µM | SI [4]: >96; SI [5]: 24; SI [6]: 3070; EC50 [7, 8]: 0.00061 µM; SI [7]: >8520
